From ChEMBL document CHEMBL1139690, “Comparison between two classes of selective EP(3) antagonists and their biological activities” (Bioorg Med Chem Lett, 2006)

Key:
[1] = biological target: T1, Prostaglandin E2 receptor EP3 subtype (Homo sapiens, UniProt P43115); assay: Binding affinity to EP3 receptor
T1 sequence (P43115 whole entry): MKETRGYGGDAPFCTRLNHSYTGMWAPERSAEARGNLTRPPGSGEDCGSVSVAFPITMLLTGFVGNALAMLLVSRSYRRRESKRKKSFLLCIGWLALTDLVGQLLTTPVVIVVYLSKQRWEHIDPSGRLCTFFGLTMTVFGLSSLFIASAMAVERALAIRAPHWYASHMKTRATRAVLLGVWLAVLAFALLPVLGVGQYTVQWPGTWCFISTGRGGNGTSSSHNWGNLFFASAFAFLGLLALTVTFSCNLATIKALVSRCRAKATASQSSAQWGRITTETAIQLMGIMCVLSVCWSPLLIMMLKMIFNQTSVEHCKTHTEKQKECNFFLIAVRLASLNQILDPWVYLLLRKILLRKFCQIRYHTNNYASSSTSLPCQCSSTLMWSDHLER

[2] = biological target: Prostaglandin E2 receptor EP4 subtype (Homo sapiens, UniProt P35408); assay: Binding affinity to EP4 receptor
Sequence of Prostaglandin E2 receptor EP4 subtype (P35408 whole entry): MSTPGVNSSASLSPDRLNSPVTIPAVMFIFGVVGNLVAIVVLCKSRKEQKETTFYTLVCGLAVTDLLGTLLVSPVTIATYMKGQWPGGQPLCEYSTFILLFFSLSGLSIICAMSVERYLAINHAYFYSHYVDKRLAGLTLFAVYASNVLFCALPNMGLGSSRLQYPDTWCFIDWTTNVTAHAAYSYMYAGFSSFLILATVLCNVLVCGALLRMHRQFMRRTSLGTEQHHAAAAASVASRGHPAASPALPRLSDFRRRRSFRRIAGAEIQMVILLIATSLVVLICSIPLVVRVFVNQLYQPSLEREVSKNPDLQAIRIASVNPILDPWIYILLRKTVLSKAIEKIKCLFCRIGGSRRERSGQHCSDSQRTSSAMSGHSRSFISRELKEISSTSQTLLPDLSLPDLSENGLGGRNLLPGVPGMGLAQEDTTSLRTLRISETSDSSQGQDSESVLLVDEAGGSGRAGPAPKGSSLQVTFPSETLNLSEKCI

[3] = biological target: T2, Prostaglandin E2 receptor EP1 subtype (Homo sapiens, UniProt P34995); assay: Binding affinity to EP1 receptor
T2 sequence (P34995 whole entry): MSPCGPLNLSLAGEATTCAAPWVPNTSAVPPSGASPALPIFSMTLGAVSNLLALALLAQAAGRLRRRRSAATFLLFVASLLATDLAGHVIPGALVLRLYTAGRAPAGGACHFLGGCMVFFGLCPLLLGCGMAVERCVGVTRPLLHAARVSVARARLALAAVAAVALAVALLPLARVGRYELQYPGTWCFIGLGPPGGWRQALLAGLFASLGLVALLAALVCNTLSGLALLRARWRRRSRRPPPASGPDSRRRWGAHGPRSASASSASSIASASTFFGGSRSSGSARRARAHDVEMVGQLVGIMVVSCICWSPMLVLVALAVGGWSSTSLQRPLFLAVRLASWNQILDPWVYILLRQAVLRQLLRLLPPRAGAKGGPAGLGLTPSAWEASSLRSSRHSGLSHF

[4] = biological target: Prostaglandin E2 receptor EP2 subtype (Homo sapiens, UniProt P43116); assay: Binding affinity to EP2 receptor
Sequence of Prostaglandin E2 receptor EP2 subtype (P43116 whole entry): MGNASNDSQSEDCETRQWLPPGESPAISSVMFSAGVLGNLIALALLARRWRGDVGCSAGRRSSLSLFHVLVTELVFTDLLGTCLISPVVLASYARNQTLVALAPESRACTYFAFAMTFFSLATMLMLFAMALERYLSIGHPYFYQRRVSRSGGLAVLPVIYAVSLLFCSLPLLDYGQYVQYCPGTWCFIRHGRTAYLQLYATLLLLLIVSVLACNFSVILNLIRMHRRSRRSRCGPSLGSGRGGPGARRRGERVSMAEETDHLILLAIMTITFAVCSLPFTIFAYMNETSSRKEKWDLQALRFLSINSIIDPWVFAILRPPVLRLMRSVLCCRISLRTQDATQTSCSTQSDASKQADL

Ki [1] | Ki [2] | Ki [3] | Ki [4] | Compound
68 nM (antagonist) | 6200 nM (antagonist) | > 100000 nM | 2500 nM (antagonist) | COc1ccc(/C=C/Cc2ccccc2/C=C/C(=O)O)cc1
56 nM (antagonist) | 1000 nM (antagonist) | 6700 nM (antagonist) | 1600 nM (antagonist) | Cc1ccc(OCc2ccccc2)c(CCCc2ccccc2CCC(=O)NS(=O)(=O)c2cccs2)c1
5 nM (antagonist) | 1500 nM (antagonist) | 8500 nM (antagonist) | 8000 nM (antagonist) | O=C(/C=C/c1ccccc1/C=C/Cc1ccccc1)NS(=O)(=O)c1cccs1
10 nM (antagonist) | 960 nM (antagonist) | 2300 nM (antagonist) | 2100 nM (antagonist) | Cc1ccc(OCc2ccccc2)c(C/C=C/c2ccccc2/C=C/C(=O)NS(=O)(=O)c2cccs2)c1
5 nM (antagonist) | 1500 nM (antagonist) | 8500 nM (antagonist) | 8000 nM (antagonist) | O=C(/C=C/c1ccccc1C/C=C/c1ccccc1)NS(=O)(=O)c1cccs1
1.6 nM (antagonist) | 840 nM (antagonist) | 1500 nM (antagonist) | 8700 nM (antagonist) | COc1cc(/C=C/Cc2ccccc2/C=C/C(=O)NS(=O)(=O)c2cccs2)ccc1OCc1ccccc1
2.4 nM (antagonist) | 1000 nM (antagonist) | 2600 nM (antagonist) | 6500 nM (antagonist) | COc1ccc(C/C=C/c2ccccc2/C=C/C(=O)NS(=O)(=O)c2cccs2)cc1
65 nM (antagonist) | 440 nM (antagonist) | 23000 nM | 940 nM (antagonist) | Cc1ccc(OCc2ccccc2)c(CCCc2ccccc2CCC(=O)O)c1
100 nM (antagonist) | 4400 nM (antagonist) | > 100000 nM | 1400 nM (antagonist) | O=C(O)/C=C/c1ccccc1C/C=C/c1ccccc1
1.6 nM (antagonist) | 840 nM (antagonist) | 1500 nM (antagonist) | 8700 nM (antagonist) | COc1cc(C/C=C/c2ccccc2/C=C/C(=O)NS(=O)(=O)c2cccs2)ccc1OCc1ccccc1
10 nM (antagonist) | 960 nM (antagonist) | 2300 nM (antagonist) | 2100 nM (antagonist) | Cc1ccc(OCc2ccccc2)c(/C=C/Cc2ccccc2/C=C/C(=O)NS(=O)(=O)c2cccs2)c1
8 nM (antagonist) | 610 nM (antagonist) | > 20000 nM | 750 nM (antagonist) | COc1cc(/C=C/Cc2ccccc2/C=C/C(=O)O)ccc1OCc1ccccc1
2.4 nM (antagonist) | 1000 nM (antagonist) | 2600 nM (antagonist) | 6500 nM (antagonist) | COc1ccc(/C=C/Cc2ccccc2/C=C/C(=O)NS(=O)(=O)c2cccs2)cc1
